Assay results taken from patent publication US9808450B2, “Solid forms comprising 3-(4-amino-1-OXO-1,3-dihydro-isoindol-2-yl)-piperidine-2,6-dione and a coformer, compositions and methods of use thereof” (CELGENE CORPORATION, priority 2013, dated 2017).
Converted amounts (≈) assume the structure as drawn.

Tests used:
cyclooxygenase-2 (COX-2) = details: in vitro; cited from earlier work
[1] = tested on: cells derived from patients with multiple myeloma and del (5q) myelodysplastic syndromes; details: cells from patients with multiple myeloma and del (5q) MDS; cited from earlier work
COX-1 = details: in vitro; cited from earlier work
[2] = Estimated solubility of lenalidomide in solvents at ambient temperature (aliquot addition, visual inspection); assay type: physicochemical; details: organic solvent or mixture, thermodynamic from solid
Procedure: Solubility was estimated by treating a weighed sample of lenalidomide with measured aliquots of the test solvent at ambient temperature, with shaking and/or sonication between aliquots. Dissolution was determined by visual inspection. Solubility numbers were calculated by dividing the total amount of solvent used to dissolve the sample by the weight of the sample. The actual solubilities may be greater than the numbers calculated because of the use of solvent aliquots that were too large or because of slow dissolution rates. […] The solubility number is expressed as “greater than” if dissolution occurred on addition of the first solvent aliquot.

[3] = tested on: tumor necrosis factor alpha (TNF-α); details: peripheral blood mononuclear cells; cited from earlier work
[4] = tested on: hematopoietic tumor models, including multiple myeloma; details: some in vivo nonclinical hematopoietic tumor models; cited from earlier work

Nc1cccc2c1CN(C1CCC(=O)NC1=O)C2=O (stereo not drawn) [Lenalidomide, 3-(4-amino-1-oxo-1,3-dihydro-isoindol-2-yl)-piperidine-2,6-dione]
Expression of COX-2 (cyclooxygenase-2 (COX-2)): inhibited the expression
Growth of cells in vitro [1]: inhibits the growth
Expression of COX-1 (COX-1): not
solubility ([2]; acetone): 2200 µg/mL (≈ 8.49 mM)
solubility ([2]; acetonitrile): 3400 µg/mL (≈ 13.1 mM)
solubility ([2]; methanol): 2600 µg/mL (≈ 10 mM)
solubility ([2]; tetrahydrofuran): 3000 µg/mL (≈ 11.6 mM)
Secretion of TNF-α [3]: inhibits the secretion
Tumor growth [4]: delay in tumor growth
